Data on nine compounds can be found in ChEMBL document CHEMBL3769343, “Spiromastilactones: A new class of influenza virus inhibitors from deep-sea fungus” (Eur J Med Chem, 2016).

Data set [1] has as its system Influenza A virus. The data set is described as follows: Antiviral activity against Influenza A virus A/WSN/1933 (H1N1) infected in MDCK cells assessed as protection against virus induced cytopathic effect after 40 hrs by Celltiter-Glo assay. In kind it is functional, organism-based.
Data set [2] is described as follows: Cytotoxicity against MDCK cells after 40 hrs by Celltiter-Glo assay. Particulars: dog. In kind it is cell-based, Canis lupus familiaris. Background: In ATP-based viability assays light output follows the ATP content of the culture.
A short description of data set [3]: (§1) Binding affinity to Influenza A virus A/WSN/33 (H1N1) HA1 protein by surface plasmon resonance assay. Further details: species or system Influenza A virus (A/WSN/1933(H1N1)).
The subject of data set [4] is Influenza A virus (A/WSN/1933(H1N1)). The description is as §1.
Data set [5] can be described thus: Inhibition of Influenza A virus A/WSN/33 (H1N1) HA1 protein by surface plasmon resonance assay. Further details: species or system Influenza A virus (A/WSN/1933(H1N1)).
Data set [6] is described as follows: Binding affinity to Influenza A virus A/WSN/33 (H1N1) HA1 protein assessed as decrease in protein affinity to sialic acid receptor by surface plasmon resonance assay (reference value: 70 nM). Further details: species or system Influenza A virus (A/WSN/1933(H1N1)). For orientation: Surface plasmon resonance follows binding to a sensor surface in real time, without labels.

The test system of data set [7] is Influenza A virus (A/WSN/1933(H1N1)). Put plainly: Binding affinity to Influenza A virus A/WSN/33 (H1N1) HA1 protein assessed as decrease in protein affinity to sialic acid receptor at 20 uM by surface plasmon resonance assay relative to control.
For data set [8] the test system is unchanged. The data set is described as follows: Binding affinity to Influenza A virus A/WSN/33 (H1N1) HA1 protein assessed as decrease in protein affinity to sialic acid receptor at 20 uM by surface plasmon resonance assay.
The test system is the same in data set [9]. Put plainly: Binding affinity to Influenza A virus A/WSN/33 (H1N1) HA1 protein assessed as decrease in protein affinity to sialic acid receptor at 10 uM by surface plasmon resonance assay.
For data set [10] the test system is unchanged. Put plainly: Binding affinity to Influenza A virus A/WSN/33 (H1N1) HA1 protein assessed as decrease in protein affinity to sialic acid receptor at 5 uM by surface plasmon resonance assay.
For data set [11] the test system is unchanged. Put plainly: Binding affinity to Influenza A virus A/WSN/33 (H1N1) HA1 protein assessed as decrease in protein affinity to sialic acid receptor at 2.5 uM by surface plasmon resonance assay.
For data set [12] the test system is unchanged. The data set is described as follows: Binding affinity to Influenza A virus A/WSN/33 (H1N1) HA1 protein assessed as decrease in protein affinity to sialic acid receptor at 1.25 uM by surface plasmon resonance assay.
Data set [13] has the same test system. Put plainly: Binding affinity to Influenza A virus A/WSN/33 (H1N1) HA1 protein assessed as decrease in protein affinity to sialic acid receptor at 0.625 uM by surface plasmon resonance assay.
Data set [14] shares this test system. The data set is described as follows: Binding affinity to Influenza A virus A/WSN/33 (H1N1) HA1 protein assessed as decrease in protein affinity to sialic acid receptor by measuring association constant by surface plasmon resonance assay (reference value: 20810/s).
A short description of data set [15]: Binding affinity to Influenza A virus A/WSN/33 (H1N1) HA1 protein assessed as decrease in protein affinity to sialic acid receptor by measuring dissociation constant by surface plasmon resonance assay (reference value: 0.001473/Ms). Further details: species or system Influenza A virus (A/WSN/1933(H1N1)).
Data set [16] relates to Influenza B virus. Put plainly: Antiviral activity against influenza B virus B/SZ/155 infected in dog MDCK cells assessed as inhibition of virus induced cytopathic effect after 40 hrs by Cell-Titer-Glo assay. In kind it is functional, organism-based. The following applies: B/SZ/155, MDCK.

Structures are written as SMILES.

With `CCCc1c(Cl)c(O)c(Cl)c(O)c1Oc1c(Cl)c(O)c(Cl)c2c1C(=O)O[C@@H]2CC`, the IC50 – broadly, the concentration needed to halve the response being measured – in [1] was 38.2 µM. The CC50 – broadly, the concentration at which the toxic effect on the cells reaches its halfway point – at 40 h in data set [2] was > 50 µM.

`CCCc1c(Cl)c(OC)cc(O)c1Oc1c(Cl)c(O)c(Cl)c2c1C(=O)O[C@@H]2CC`: in data set [1], the half-maximal inhibitory concentration (IC50) was > 50 µM. Further, the CC50 at 40 h in data set [2] is > 50 µM.

As for `CCCc1c(Cl)c(OC)cc(OC)c1Oc1c(Cl)c(O)c(Cl)c2c1C(=O)O[C@@H]2CC`, the IC50 in data set [1] came to 16.2 µM. In addition, the CC50 at 40 h in data set [2] was > 50 µM.

Regarding `CCCc1c(Cl)c(OC)c(Cl)c(O)c1Oc1c(Cl)c(O)c(Cl)c2c1C(=O)O[C@@H]2CC`, in data set [1], the IC50 is > 50 µM. Also, the CC50 at 40 h in data set [2] was > 50 µM.

Consider `CCCc1c(Cl)c(O)c(Cl)c(OC)c1Oc1c(Cl)c(O)c(Cl)c2c1C(=O)O[C@@H]2CC`, for which, in [1], the IC50 was 22.6 µM. For the same compound, the CC50 at 40 h in data set [2] was > 100 µM.

As for `CCCc1cc(O)cc(O)c1C(=O)O`, the IC50 in data set [1] is > 100 µM. Moreover, the CC50 at 40 h in [2] was > 100 µM.

In the case of `CCCc1cc(O)c(Cl)c(OC)c1Oc1c(Cl)c(O)c(Cl)c2c1C(=O)O[C@@H]2CC`, the 50% inhibitory concentration (IC50) in data set [1] and in data set [5] was 11.4 µM throughout. Besides, the half-maximal cytotoxic concentration (CC50) at 40 h in data set [2] is > 100 µM. The compound also gave a Kd in data set [3] of 55 µM. In data set [4], this compound came in with a Ka of 0.77 ×10⁴ /Ms.

As to `COc1cc(/C=C/C(=O)CC(=O)/C=C/c2ccc(O)c(OC)c2)ccc1O` [CURCUMIN], the values for the Kd in [6] and in [15] were 0.507 µM and 0.001351 M⁻¹ s⁻¹, respectively. Also, the fold change (FC) in data set [7] is 8. Further, the Activity in data set [8] worked out at 78.8 RU; in data set [9], 36.4 RU; in data set [10], 16.1 RU; in [11], 6.8 RU; in data set [12], 2.7 RU; in data set [13] it was 0.8 RU. In addition, the Ka in data set [14] turned out to be 2660 s⁻¹.

For `CCOC(=O)C1=C[C@@H](OC(CC)CC)[C@H](NC(C)=O)[C@@H](N)C1` [OSELTAMIVIR], in [1], the IC50 was determined as 10 µM. For the same compound, the CC50 at 40 h in data set [2] was > 100 µM. Also, in [16], the EC50 (as a rule, the concentration at which the effect is half-maximal) is > 83.2 µM.
